From patent US9446039B2, “Aminoheteroaryl compounds as MTH1 inhibitors” (CEMM—FORSCHUNGSZENTRUM FÜR MOLEKULARE MEDIZIN GMBH, priority 2012, dated 2016)

What was measured:
Assay type in all cases: binding
[1] = target: SW480 colon carcinoma cells lysate proteins (Homo sapiens, UniProt P15531); settings: PreyGene NME1
[2] = target: T1, SW480 colon carcinoma cells lysate proteins (Homo sapiens, UniProt P12429); settings: PreyGene ANXA3
T1 sequence (P12429 1-323): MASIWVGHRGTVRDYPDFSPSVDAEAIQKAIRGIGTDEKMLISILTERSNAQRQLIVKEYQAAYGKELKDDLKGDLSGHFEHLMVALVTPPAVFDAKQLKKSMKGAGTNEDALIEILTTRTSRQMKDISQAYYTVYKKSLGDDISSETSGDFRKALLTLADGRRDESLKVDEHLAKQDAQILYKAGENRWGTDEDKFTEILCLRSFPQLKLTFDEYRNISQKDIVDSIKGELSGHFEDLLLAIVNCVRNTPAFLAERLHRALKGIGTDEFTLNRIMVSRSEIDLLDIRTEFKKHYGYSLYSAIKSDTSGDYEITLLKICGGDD

[3] = target: SW480 colon carcinoma cells lysate proteins (Homo sapiens, UniProt P07858); settings: PreyGene CTSB
[4] = target: T2, SW480 colon carcinoma cells lysate proteins (Homo sapiens, UniProt Q9UHD8); settings: PreyGene 09-Sep
T2 sequence (Q9UHD8 1-586): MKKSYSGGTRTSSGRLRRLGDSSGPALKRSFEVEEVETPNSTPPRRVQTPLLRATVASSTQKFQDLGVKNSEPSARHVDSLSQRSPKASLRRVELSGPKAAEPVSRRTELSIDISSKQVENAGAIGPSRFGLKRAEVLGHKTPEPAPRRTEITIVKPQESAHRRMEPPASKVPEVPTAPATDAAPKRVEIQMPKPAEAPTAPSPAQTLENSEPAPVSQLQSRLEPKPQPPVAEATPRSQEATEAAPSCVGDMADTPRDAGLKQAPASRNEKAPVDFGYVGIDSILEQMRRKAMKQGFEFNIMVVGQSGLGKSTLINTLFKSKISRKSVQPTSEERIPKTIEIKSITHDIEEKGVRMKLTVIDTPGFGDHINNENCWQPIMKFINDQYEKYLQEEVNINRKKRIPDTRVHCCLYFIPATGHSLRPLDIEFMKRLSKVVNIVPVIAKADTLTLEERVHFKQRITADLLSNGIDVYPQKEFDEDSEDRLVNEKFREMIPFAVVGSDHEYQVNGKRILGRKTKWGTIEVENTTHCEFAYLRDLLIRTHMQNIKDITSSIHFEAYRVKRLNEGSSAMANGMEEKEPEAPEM

[5] = target: T3, SW480 colon carcinoma cells lysate proteins (Homo sapiens, UniProt Q9BRA2); settings: PreyGene TXNDC17
T3 sequence (Q9BRA2 1-123): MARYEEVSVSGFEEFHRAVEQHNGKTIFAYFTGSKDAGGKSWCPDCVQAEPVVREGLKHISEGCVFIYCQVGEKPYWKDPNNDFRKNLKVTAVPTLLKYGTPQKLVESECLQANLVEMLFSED

[6] = target: T4, SW480 colon carcinoma cells lysate proteins (Homo sapiens, UniProt P16949); settings: PreyGene STMN1
T4 sequence (P16949 1-149): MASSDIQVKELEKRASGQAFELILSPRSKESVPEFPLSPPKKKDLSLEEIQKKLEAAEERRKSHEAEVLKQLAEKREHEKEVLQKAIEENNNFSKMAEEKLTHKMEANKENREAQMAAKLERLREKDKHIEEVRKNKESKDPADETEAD

[7] = target: SW480 colon carcinoma cells lysate proteins (Homo sapiens, UniProt P23284); settings: PreyGene PPIB
Chain of SW480 colon carcinoma cells lysate proteins (Homo sapiens, UniProt P23284) (P23284 34-216): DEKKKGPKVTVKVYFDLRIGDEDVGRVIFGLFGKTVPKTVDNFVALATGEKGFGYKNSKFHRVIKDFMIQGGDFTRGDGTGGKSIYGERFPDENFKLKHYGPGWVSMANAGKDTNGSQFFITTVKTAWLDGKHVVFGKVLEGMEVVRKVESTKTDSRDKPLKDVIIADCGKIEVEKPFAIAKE

[8] = target: SW480 colon carcinoma cells lysate proteins (Homo sapiens, UniProt Q9BVA1); settings: PreyGene TUBB2B; SW480 cells
Chain of SW480 colon carcinoma cells lysate proteins (Homo sapiens, UniProt Q9BVA1) (Q9BVA1 whole entry): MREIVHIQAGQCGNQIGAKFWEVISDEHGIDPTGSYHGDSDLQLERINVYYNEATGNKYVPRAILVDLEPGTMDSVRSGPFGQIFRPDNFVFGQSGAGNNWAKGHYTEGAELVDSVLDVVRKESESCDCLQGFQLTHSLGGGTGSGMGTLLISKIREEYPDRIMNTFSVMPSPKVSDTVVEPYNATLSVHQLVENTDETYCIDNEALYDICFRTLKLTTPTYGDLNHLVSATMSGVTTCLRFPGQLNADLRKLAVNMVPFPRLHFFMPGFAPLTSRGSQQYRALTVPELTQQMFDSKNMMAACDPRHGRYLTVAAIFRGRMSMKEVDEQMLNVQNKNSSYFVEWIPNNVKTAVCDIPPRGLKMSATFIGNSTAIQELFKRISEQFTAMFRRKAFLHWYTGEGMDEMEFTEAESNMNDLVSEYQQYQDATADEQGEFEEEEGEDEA

Chain of SW480 colon carcinoma cells lysate proteins (Homo sapiens, UniProt P15531) (P15531 whole entry): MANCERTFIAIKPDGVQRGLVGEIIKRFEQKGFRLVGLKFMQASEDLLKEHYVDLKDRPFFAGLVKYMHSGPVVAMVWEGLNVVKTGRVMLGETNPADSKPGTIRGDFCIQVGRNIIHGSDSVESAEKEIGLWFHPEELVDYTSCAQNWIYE

C[C@H](Oc1cc(-c2cnn(C3CCNCC3)c2)cnc1N)c1c(Cl)ccc(F)c1Cl [(5)-crizotinib]
AvgP [1]: 0.4442 | SC.Exp. 1-1 [1]: 6 | SC.Exp. 1-2 [1]: 4 | SC.Exp. 2-1 [1]: 0 | SC.Exp. 2-2 [1]: 0 | Sum (SC.Exp.) [1]: 10 | AvgP [2]: 0.461 | SC.Exp. 1-1 [2]: 4 | SC.Exp. 1-2 [2]: 4 | SC.Exp. 2-1 [2]: 0 | SC.Exp. 2-2 [2]: 0 | Sum (SC.Exp.) [2]: 8 | AvgP [3]: 0.1845 | SC.Exp. 1-1 [3]: 0 | SC.Exp. 1-2 [3]: 2 | SC.Exp. 2-1 [3]: 0 | SC.Exp. 2-2 [3]: 0 | Sum (SC.Exp.) [3]: 2 | AvgP [4]: 0.323 | SC.Exp. 1-1 [4]: 1 | SC.Exp. 1-2 [4]: 2 | SC.Exp. 2-1 [4]: 0 | SC.Exp. 2-2 [4]: 2 | Sum (SC.Exp.) [4]: 5 | AvgP [5]: 0.1862 | SC.Exp. 1-1 [5]: 2 | SC.Exp. 1-2 [5]: 3 | SC.Exp. 2-1 [5]: 0 | SC.Exp. 2-2 [5]: 0 | Sum (SC.Exp.) [5]: 5 | AvgP [6]: 0.4156 | SC.Exp. 1-1 [6]: 3 | SC.Exp. 1-2 [6]: 3 | SC.Exp. 2-1 [6]: 0 | SC.Exp. 2-2 [6]: 0 | Sum (SC.Exp.) [6]: 6 | AvgP [7]: 0.381 | SC.Exp. 1-1 [7]: 2 | SC.Exp. 1-2 [7]: 2 | SC.Exp. 2-1 [7]: 0 | SC.Exp. 2-2 [7]: 0 | Sum (SC.Exp.) [7]: 4 | AvgP [8]: 0 | SC.Exp. 1-1 [8]: 4 | SC.Exp. 1-2 [8]: 3 | SC.Exp. 2-1 [8]: 1 | SC.Exp. 2-2 [8]: 2 | SC.Exp. Sum [8]: 10
